# Source: patent US20230313181A1, “HISTIDINE-LYSINE POLYMERS AND METHODS FOR DELIVERING MRNA USING THE SAME” (UNIVERSITY OF MARYLAND, BALTIMORE, priority 2019, published 2023)
# Bridges are numbered along the chain shown (N, C = ends). Roman numbers before positions name the chains, in order. Where no end group is shown, it is not given here.
# Key:
# mRNA = assay: Heparin displacement assays (gel electrophoresis and Sybr Gold dye intercalation); assay type: physicochemical; conditions: HK:mRNA 4:1 wt/wt
# Method: FIG. 4. Heparin Displacement Assays. After HK polyplexes were formed (wt:wt; HK:mRNA; 4 μg:1 μg), different concentrations of heparin […] were incubated with these for 30 min. A. Gel Retardation. The HK polyplexes were loaded on the agarose gel (1%), and electrophoresis was carried out and stained with Sybr Gold. B. Fluorescent dye intercalation. After the HK polyplexes were formed and incubated with several concentrations of heparin, the Sybr Gold nucleic acid dye was incubated with the HK polyplexes for 5 mins. Fluorescence was then measured by a microplate fluorimeter (λex=497 nm, λem=520 nm) (SynergyMx, BioTek). *, P<0.05; ***, P<0.001; H3K4b or H2K vs. H3K(+H)4b.
# Heparin Displacement Assays. Heparin displacement assays of HK polyplexes were done with the dye intercalation assay and with gel electrophoresis. A fluorescent assay assessed polyplexes of HK polymer and mRNA (4:1 wt/wt ratio; polymer:mRNA) formed in RNAse/DNAase free water (Corning, Manassas, VA). HK polyplexes were prepared as described previously, followed by the addition of diluted Syber Gold. For detection, working dilutions of the polyplexes (1/5 of volume), water (3/5) and Sybr Gold dye (1/5, 0.2×) were incubated for 5 minutes, and fluorescence was measured by a fluorimeter (Ex=497 nm, Em=520 nm) (SynergyMx, BioTek, Winooski, VT). The control sample was prepared with the same amount of mRNA, water, and Sybr Gold dye. For the heparin displacement, instead of water, heparin salt (Sigma-Aldrich, St. Louis, MO) solutions at different concentrations (0.5, 1, 1.5, 2, 3 μg/μl) were used, and the HK polyplexes were incubated at 37° C. for 30 min before addition of Sybr Gold.
# Displacement of mRNA from HK polyplexes with heparin was also done with gel electrophoresis. After HK polyplexes were formed, different concentrations of heparin (0.5, 1.0, 1.5, 2.0, 3.0 μg/μl; volume 20 μl) were incubated with these at 37° C. for 30 min. The polyplexes were then loaded on the agarose gel (1%; 10× BlueJuice Gel loading buffer), and electrophoresis was carried out and stained with SG as described above. […]
# MDA-MB-231 cells = assay: In vitro mRNA transfection with HK polyplexes (luciferase mRNA, luciferase activity); assay type: cell-based; conditions: for RLU/μg-Protein (luciferase activity): mRNA 1 μg, 24 h
# Method: FIG. 1. Comparison of H3K(+H)4b and H3K4b peptides as carriers of mRNA. To form the HK polyplexes, the mRNA (1 μg) was mixed with 3 different ratios of the HK ([…]) polymer for 30 minutes. The HK polyplexes were then added to the cells for 24 h before the luciferase activity was measured. ****, H3K(+H)4b vs H3K4b, P<0.0001.
# In vitro mRNA Transfection. Several HK polymers were examined for their ability to carry a luciferase-expressing mRNA (CleanCap Firefly Luciferase mRNA, Trilink Biotechnologies, Inc, San Diego, CA) into MDA-MB-231 cells (America Type Tissue Culture, Manassas, VA). In brief, 3×10^4 cells were plated into a 24-well plate containing 500 μl of DMEM and 10% fetal bovine serum (ThermoFisher Scientific, Waltham, MA). After 24 h, when the cells were 60 to 80% confluent, the media in each well was changed to Opti-MEM (ThermoFisher Scientific). To prepare HK polyplexes, mRNA (1 μg) in 50 μl of Opti-MEM was briefly mixed well with one of the HK polymers (4 to 12 μg) and maintained at room temperature for 30 min. This polyplex was then added dropwise to the cells. After four h, the Opti-MEM media was removed and replaced with 0.5 ml of DMEM/10% serum (0.5 ml). Twenty-four hours later, the cells were lysed, and the luciferase activity (Promega Corporation, Madison, WI) was measured.
# To obtain the data in Table 4, luciferase-expressing mRNA (1 μg) in 50 μl of Opti-MEM was briefly mixed with one of the HK polymers (4, 8, or 12 μg) and maintained at room temperature for 30 min. The resulting polyplexes were added dropwise to the MDA-NM-231 cells and after four h, the Opti-MEM media was removed and replaced with DMEM/10% serum. Twenty-four hours later, the cells were lysed, and the luciferase activity was measured
substance,measurement,setting,value
"I: KHHHKHHHKHHHHKHHHKKKK-NH2 / II: KHHHKHHHKHHHHKHHHK / III: KHHHKHHHKHHHHKHHHK / IV: KHHHKHHHKHHHHKHHHK (amide I:19-IV:C, I:20-III:C, I:21-II:C) [H3K(+H)4b]",binding/release of mRNA and polyplex stability on exposure to heparin (in words),mRNA,binds more tightly to the mRNA
same,"luciferase expression, fold greater than with H3K4b",MDA-MB-231 cells; 4:1 ratio (HK:mRNA; wt:wt),10 fold
same,effectiveness as carrier of mRNA (in words),"MDA-MB-231 cells; luciferase mRNA, HK polyplex",markedly better as a carrier of mRNA
same,RLU/μg-Protein (luciferase activity),MDA-MB-231 cells; ratio mRNA:polymer 1:4 (wt:wt),1532.9 ± 122.9 RLU/μg-Protein
same,RLU/μg-Protein (luciferase activity),MDA-MB-231 cells; ratio mRNA:polymer 1:8 (wt:wt),1656.3 ± 202.5 RLU/μg-Protein
same,RLU/μg-Protein (luciferase activity),MDA-MB-231 cells; ratio mRNA:polymer 1:12 (wt:wt),1033.4 ± 197^ RLU/μg-Protein
